From patent US20230050202A1, “ENGINEERED FIBROBLASTS AS CELL THERAPY TO TREAT CANCER VIA TUMOR STROMA STABILIZATION” (The Johns Hopkins University, priority 2020, published 2023)

What was measured:
67NR-embedded ECM [1] = experiment: ECM fibril alignment (coherence analysis) in 67NR spheroid-embedded ECM; type: cell-based, mouse; details: 0.5 mM genipin, 24 hours, vs control
Description: Spheroid encapsulation without fibroblast: after the spheroid adhered to the glass bottom well via collagen, the liquid collagen kept at the 4° C. was poured to the well to embed the spheroid. 40 μL liquid collagen was slowly pipetted into the well and allowed to gel for 2 hours at room temperature. 2 mL DMEM was then added into the well. The embedded spheroid was incubated for at least 1 day or longer before being used.
(§1) ECM crosslinking. ECM-encapsulated 67NR spheroids were prepared as previously described. After 1-hour incubation, genipin (Sigma-Aldrich, G4796) was mixed with DMEM to reach final concertation of 0.5 mM and 1 mM. The solutions were then added to the samples and incubated for 24 hours. The DMSO-added DMEM were used as a control for the experiment. The samples were then washed with PBS for further usage.
(§2) Fibril coherence analysis was performed using Quantitative orientation measurement in orientationJ21. The immunostaining was quantified using Fiji/ImageJ software. […]
To determine whether 67NR spheroid alone is sufficient to align the fibrils, time-lapse imaging was performed by embedding EpH4-Ev and 67NR spheroids in ECM without fibroblasts. […] To quantify the degree of fibril alignment, coherence analysis 21 was performed. […] Fibril orientations within and outside the 300-μm perimeter from the spheroid were evaluated separately.

67NR-embedded ECM [2] = experiment: Line FRAP diffusion enhancement time in spheroid-embedded ECM; type: cell-based, mouse; details: 0.5 mM genipin-treated 67NR-embedded ECM, 2,000 kDa FITC-dextran
Description: ECM crosslinking. ECM-encapsulated 67NR spheroids were prepared as previously described. After 1-hour incubation, genipin (Sigma-Aldrich, G4796) was mixed with DMEM to reach final concertation of 0.5 mM and 1 mM. The solutions were then added to the samples and incubated for 24 hours. The DMSO-added DMEM were used as a control for the experiment. The samples were then washed with PBS for further usage. Fluorescence recovery after photobleaching. 10 mg/mL of 2,000 kDa fluorescein isothiocyanate (FITC)-Dextran (SigmaAldrich, FD2000S) was added to the collagen gel and incubated for 30 minutes at 37° C. […] The characteristic fluorescence recovery times τD, when 64% of the fluorescence intensity is recovered, was calculated based on the fitted curve. […] Line fluorescence recovery was performed after photobleaching (FRAP) to measure the diffusivity of the spheroid-embedded ECM. […] To assess whether there is enhancement in diffusion rates in the radial direction from the spheroid, the metric “diffusion enhancement time (τDE)” was introduced, defined as the difference in the characteristic fluorescence recovery times τD, when 64% of the fluorescence intensity is recovered, between the two stripes: […]) where rD(radial) represents the rD measured in the radial direction, and rD(orthogonal) in the corresponding orthogonal direction. […]

[3] = Rheological measurement (LAOS) of crosslinked collagen gel; type: physicochemical
Description: ECM crosslinking. ECM-encapsulated 67NR spheroids were prepared as previously described. After 1-hour incubation, genipin (Sigma-Aldrich, G4796) was mixed with DMEM to reach final concertation of 0.5 mM and 1 mM. The solutions were then added to the samples and incubated for 24 hours. The DMSO-added DMEM were used as a control for the experiment. The samples were then washed with PBS for further usage. Elastic modulus measurement. The Large […] Oscillatory Shear (LAOS) was used to test the shear modulus of the crosslinked and uncrosslinked collagen gel. The collagen gel was prepared in disks and subjected to sinusoidal rotational deformation. The amplitude of the applied strain (y) to the material was increased at a fixed rotational frequency (w) of 1 rad/s. The analysis utilized a viscoelastic stress response model wherein the shear stress is computed as a function of strain ranging from 0.01%-15%. The Fourier Transform method was utilized to quantify the nonlinear stress response of ECM samples under increasingly large angular shear strain. LAOS was performed using an Anton Paar Modular Compact Rheometer (MCR 302) with a parallel plate (diameter 8 mm) at 37° C. The measurement values of the shear modulus were then used obtain the elastic modulus by the formula: E=2G(1+v) where E is elastic modulus, G is shear modulus, and v is the Poisson ratio. The Poisson ratio was assumed to be 0.5.

[4] = system: FSP1 expression in NIH-3T3 fibroblasts; experiment: FSP1 immunofluorescence in fibroblasts, 67NR spheroid coculture; type: cell-based, mouse
Description: (§3) Spheroid encapsulation with fibroblasts: for coculture, 40 μL collagen was used to re-suspend 2×10^5 NIH-3T3 cells after centrifugation. The fibroblasts-containing liquid collagen was then added to the glass bottom well where a spheroid was placed in its center. The mixture was allowed to gel at room temperature for 2 hours. 2 mL DMEM was then added into the well. The embedded spheroid was incubated for at least 1 day or longer, as indicated in the text, before being used.
as §1
(§4) Immunofluorescence. Samples were fixed in 4% paraformaldehyde for 30 minutes, permeabilized with 0.1% Triton X100 (Sigma-Aldrich, X100) in PBS for 30 minutes. PBS containing 2% bovine serum albumin (Sigma-Aldrich, A7906) and 0.1% Tween-20 (Promega) was then added to sample for 30 minutes for blocking. All antibody was diluted in PBS with 1% bovine serum albumin. The fixed cells were incubated with the primary antibody for overnight at 4° C., followed by washing using PBS for 3 times, and then incubated with the secondary antibody for 2 hours. After washing, the samples were immersed in PBS and stored in 4° C. for further usage. […]
as §2
(§5) where II and AI denotes the fluorescence intensity, and the area of the cell, respectively. I2 and A2 denotes the fluorescence intensity, and the area of the larger region encompassing the cell and the surrounding background, respectively. […] The corrected fluorescence intensity was then recorded for each cell.

[5] = system: αSMA expression in NIH-3T3 fibroblasts; experiment: αSMA immunofluorescence in fibroblasts, 67NR spheroid coculture; type: cell-based, mouse
Description: as §3, §1, §4, §2, §5

67NR spheroids = experiment: Cytotoxicity in genipin-treated 67NR-embedded ECM; type: cell-based, mouse; details: 0.5 mM genipin, 24 hours
Description: as §1
The corollary to the observation that ECM fibril alignment promotes CAF induction in the coculture is that suppressing such alignment will attenuate it. To confirm this, genipin, a biocompatible crosslinking reagent, was used to suppress the fibril reorganization. The optimal genipin concentration was identified to be 0.5 mM. […] Yet the fibril alignment was suppressed by 28% (FIGS. 5A-5B). […] Though ECM crosslinking might lead to CAF induction because of ECM stiffening, it was not the case in these experiments. […] Having had established the optimal genipin concentration to suppress fibril alignment, it was used to evaluate whether CAF induction in cocultured fibroblasts would be attenuated. […] To exclude the possibility that genipin directly downregulates CAF markers in fibroblasts, their expression was evaluated in genipin-treated samples containing fibroblasts only.

[6] = system: αSMA expression in human lung fibroblasts (MRCS); experiment: TGFβ1-mediated CAF induction (αSMA expression) in human lung fibroblasts; type: cell-based; details: control fibroblasts, TGFβ1 10 ng/mL, vs non-treated group, p<0.001
Excerpt: Prototype STAR fibroblasts were generated by introducing the dominant negative form of RhoA (RhoA^T19N) into to human lung fibroblasts (MRCS) to reduce RhoA signaling, a key mediator for CAF phenotypes.

[7] = fibroblast-only samples after genipin treatment
[8] = genipin-treated cocultures, fibroblasts outside 300-μm perimeter, treatment vs control
[9] = genipin-treated cocultures, fibroblasts within the 300-μm perimeter from the spheroid

Row | ECM stiffening ([3]; 0.5 mM genipin, 24 hours) | shear moduli vs uncrosslinked control ([3]; 0.5 mM genipin-treated ECM) | elastic modulus of the ECM (mean±s.d.) ([3]; ECM treated with 0.5 mM genipin) | ECM became stiffer ([3]; ECM treated with 1 mM genipin vs un-crosslinked ECM) | Molecule | fibril alignment suppressed (67NR-embedded ECM [1]) | rDE value (diffusion enhancement time) (67NR-embedded ECM [2]) | FSP1 expression [4, 7] | FSP1 expression decreased [4, 8] | FSP1 expression reduced [4, 9] | αSMA expression [5, 7] | αSMA expression decreased [5, 8] | αSMA expression reduced [5, 9] | cytotoxicity (67NR spheroids) | αSMA expression increase [6]
1 | negligible ECM stiffening | comparable | 755±163 Pa | 29% | COC(=O)C1=CO[C@@H](O)[C@@H]2C(CO)=CC[C@H]12 [genipin] | 28% | decreased to a negligible level | remained unchanged | 36% | 23% | remained unchanged | 39% | 33% | no observable cytotoxicity | –
2 | – | – | – | – | TGFβ1: cytokine used at 10 ng/mL to induce CAF phenotype in fibroblasts | – | – | – | – | – | – | – | – | – | 50%
